Assay results taken from US10874621B2, “Cationic nanoparticles for co-delivery of nucleic acids and therapeutic agents” (The Brigham and Women's Hospital, Inc., priority 2013, dated 2020).

Test: Solubility of compound 1 in organic solvents
Format: physicochemical
Conditions: organic solvents like DMSO and dichloromethane (DCM)

solubility in organic solvents: sufficiently soluble
Substance: cis,cis,trans-[Pt(NH3)2Cl2(OOC(CH2)8CH3)2] [Compound 1]
